# Test results reported in patent US10653658B2, “Biofilm inhibiting compositions enhancing weight gain in livestock” (Akeso Biomedical, Inc., priority 2015, dated 2020).
# Read-outs that look alike come from different tables or passages of the source. Marks after values point to notes of the source that are not given here.
# Legend:
# [1] = Zootechnical efficacy of ferric citrate in milk replacer for rearing calves: body weight, feed intake, gain, FCR (Example 11); type: in vivo, rearing calves (German Holstein); conditions: milk replacer: T1 Fe(II) sulfate 85 g Fe/tonne, T2 plus ferric citrate 500 g/tonne feed
# Procedure: The composition of the basal calf milk replacer is shown in Table 36, and the feeding schedule in Table 37.
# The milk replacer was dissolved in warm water at around 50° C. The concentration was 125 grams per liter. The drinking temperature was kept at 38 to 40° C.
# Additionally, a commercial calf starter feed (mash) without phytogenics, probiotics, organic acids or enzymes was provided. Straw was also provided in pre-weighed amounts throughout the 56 day feeding period.
# [2] = Calf health scoring: body temperature, faeces quality, coughing, nasal discharge, antibiotic treatments (Example 11)
# Procedure: A study was performed to evaluate the potential of ferric citrate (CI-PLEX™ CHELATE) to improve calf health, welfare, and performance. A total of 80 rearing calves (German Holstein) were used from d 12 to d 68 of age. 40 calves were fed a basal milk replacer (T1 Control). For comparison, 40 calves were fed the basal milk replacer with addition of ferric (III) citrate (T2 CI-PLEX™ CHELATE, 500 g/tonne feed) with a microtracer present at a rate of 10%, equivalent to 50 g/tonne for product identification purposes only. The basal milk replacer was supplemented with ferrous (II) sulfate at normal commercial rates (supplying 85 g Fe/tonne feed). T2 was also supplemented with normal commercial practice of Fe (ferrous (II) sulfate at 85 g Fe/tonne feed) with Fe at 85 g/tonne feed from the ferric (III) citrate (CI-PLEX™ CHELATE). […] The basal milk replacer batch was produced, and then split into 2 aliquots prior to adding the different inorganic or organic Fe sources to T1, and T2 diets. Calves were housed in rearing units, each unit with pens on either side of a central aisle.
# The following parameters were measured: mean pen body weight (BW), feed intake (FI), body weight gain (BWG), feed conversion ratio (FCR, feed:gain) at study start and on days 7, 14, 21, 28, 35, 42, 49 and 56 days on trial. In addition, the following were also recorded: body temperature, faeces quality, coughing score, and nasal discharge.
# The scoring of faecal consistency and of rectal temperature, coughing, nasal discharge as well as eye and ear scores were ranked daily.
# [3] = test system: Pseudomonas aeruginosa PAO-1 strain
# Procedure: Pseudomonas aeruginosa PAO-1 strain was routinely grown on either LB (Luria-Bertani, Oxoid, UK) agar plates at 37° C. or in broth at 37° C. with 200 rpm shaking. UV-sterilized glass slides were incubated in either 15 mL RPMI-1640 defined medium (Sigma, UK) or 15 mL RPMI-1640 with Fe-Lac inoculated with diluted (OD600=0.01) bacteria from overnight cultures at 37° C. with 60 rpm shaking for 72 hours. The slides were removed from bacterial culture and washed with 15 mL phosphate buffered saline at room temperature for 5 minutes three times and then rinsed with distilled H2O. After washing, the slides were stained with 20 μM SYTO17 dye (Invitrogen, UK) at room temperature for 30 minutes. After removing excess staining dye and air-drying, the samples were examined using a Carl Zeiss LSM 700 Laser Scanning Microscope with ZEN 2009 imaging software (Carl Zeiss, Germany). The coverage rate of bacteria on the surface was analysed using open source Image J 1.44 software (National Institute of Health, US).
# Pseudomonas aeruginosa PAO-1 strain was routinely grown on either LB (Luria-Bertani, Oxoid, UK) agar plates at 37° C. or in broth at 37° C. with 200 rpm shaking. UV-sterilized glass slides were incubated in either 15 mL RPMI-1640 defined medium (Sigma, UK) or 15 mL RPMI-1640 with Fe-Cit inoculated with diluted (OD600=0.01) bacteria from overnight cultures at 37° C. with 60 rpm shaking for 72 hours. The slides were removed from bacterial culture and washed with 15 mL phosphate buffered saline at room temperature for 5 minutes three times and then rinsed with distilled H2O. After washing, the slides were stained with 20 μM SYTO17 dye (Invitrogen, UK) at room temperature for 30 minutes. After removing excess staining dye and air-drying, the samples were examined using a Carl Zeiss LSM 700 Laser Scanning Microscope with ZEN 2009 imaging software (Carl Zeiss, Germany). The coverage rate of bacteria on the surface was analysed using open source Image J 1.44 software (National Institute of Health, US).
# Pseudomonas aeruginosa PAO-1 strain was routinely grown on either LB (Luria-Bertani, Oxoid, UK) agar plates at 37° C. or in broth at 37° C. with 200 rpm shaking. […] The slides were removed from bacterial culture and washed with 15 mL phosphate buffered saline at room temperature for 5 minutes three times and then rinsed with distilled H2O. After washing, the slides were stained with 20 μM SYTO17 dye (Invitrogen, UK) at room temperature for 30 minutes. After removing excess staining dye and air-drying, the samples were examined using a Carl Zeiss LSM 700 Laser Scanning Microscope with ZEN 2009 imaging software (Carl Zeiss, Germany). The coverage rate of bacteria on the surface was analysed using open source Image J 1.44 software (National Institute of Health, US).
# Pseudomonas aeruginosa PAO-1 strain was routinely grown on either LB (Luria-Bertani, Oxoid, UK) agar plates at 37° C. or in broth at 37° C. with 200 rpm shaking. UV-sterilized glass slides were incubated in either 15 mL RPMI-1640 defined medium (Sigma, UK) or 15 mL RPMI-1640 with Fe-Gly inoculated with diluted (OD600=0.01) bacteria from overnight cultures at 37° C. with 60 rpm shaking for 72 hours. The slides were removed from bacterial culture and washed with 15 mL phosphate buffered saline at room temperature for 5 minutes three times and then rinsed with distilled H2O. […] The coverage rate of bacteria on the surface was analysed using open source Image J 1.44 software (National Institute of Health, US).
# lactobacilli = assay: Faecal lactobacilli counts and L:C ratio in weaner pigs (Example 7); type: in vivo; conditions: 0.2 g/L in drinking water; one male pig per pen
# Description: (§1) Faeces, cleanliness and health scores was taken daily (Appendix). Faecal scores especially are indicative of diarrhea incidence, and are used in the industry as a general easy to observe gut health indicator. […] Faecal samples were stored under conditions allowing submission to SAC Veterinary Services for quantification of lactobacilli and coliforms, and their ratio (L:C ratio). These are used as key indicators for gut health, with a greater L:C ratio being indicative to better gut health.
# Campylobacter jejuni = assay: Campylobacter carriage in chickens after oral challenge, caecal contents at day 35 (Example 9); type: in vivo; conditions: 340 μM in the drinking water
# Procedure: A study was performed to evaluate reduction of Campylobacter carriage in chickens using ferric lactate in one treatment group, and FeQ (Q-PLEX) in a second treatment group. A third treatment group served as a positive control. The ferric lactate and FeQ were administered to the treatment groups at a concentration of 340 μM in the drinking water. Each treatment group comprised 12 birds per pen. All three treatment groups were orally challenged with 10^5 cfu of Campylobacter jejuni at day 14 of the trial. At day 35 all birds were euthanized, and quantitative bacteriology performed on caecal contents.
# [4] = 0.2 g/L in drinking water; weaner pigs
# Description: Animal Details • Number of treatments: 4 treatments • Number of replicates: 4 pens • Number of animals per pen: 4 pigs (balanced for sex as much as possible) • Number of pens in study: 16 pens • Animal species and breed: newly weaned pigs (Large White×Landrace) • Total number of animals: 64
# There were four (4) treatments, each having 4 replicate pens with 4 pigs per replicate pen, i.e. 16 pigs per treatment or 64 pigs in total.
# The feeds used were standard commercial, non-medicated feeds, tailored for weaner pigs. The feeds were offered as a 3 mm pellet and ad libitum. Water will also be available ad libitum.
# The Ethology 3 building of SRUC's Easter Howgate Pig Unit were used in this study. This house consists of 6 rooms, each with 4 pens, so holds up to 24 pens of 4 m^2 each; for this study, 4 rooms were used. The animal house, which is an environmentally controlled building, were sanitized prior to use and between rounds. Pigs were placed at weaning on a thick layer of fresh white wood shavings or straw in pens. Pens were balanced as much as possible for litter origin and sex (2 intact males and 2 females). Pens were bedded with additional sawdust or straw as required, and were equipped with a single feeder and nipple drinker. Foods were available ad libitum throughout. Water were supplied via measured bottles per pen, and also available. Environmental temperature were maintained at 26° C. for the first 4 days after weaning and then decreased by 2° C. for the remainder of the experiment. Lights were on from 08:00 am till 18:00 μm and night-lights maintained between 18:00 μm and 08:00 am.
# Pigs were individually weighed at day 0, 6 and 13. Pigs removed or found dead weighed, and date noted.
# The volume of feed offered per pen was recorded daily from day 0 until day 12, inclusive. Feed refusals were recorded daily from day 1 until day 13, inclusive.
# Pig weights, feed offered and feed refusals were used to determine averaged daily weight gain, daily feed intake and feed conversion ratio, over day 0 to 6, 6 to 13, as well as 0 to 13.
# From day 0 until day 13, the volume of water offered per pen was recorded daily and water levels were recorded from the water bottles prior to morning feeding before tupping up.
# Data gathered were analyzed using analysis of variance (ANOVA), to test for the effect of Fe-complex provision per se and Fe-complex type. Treatments were allocated in blocks within Ethology 3, as each of the four proposed treatments were in each of the four rooms used. As such, rooms were used as block in the model. Effects were considered significant at P<0.05.
# E. coli = assay: Faecal E. coli counts in weaner pigs (Example 7); type: in vivo; conditions: 0.2 g/L in drinking water; one male pig per pen
# Description: as §1
# [5] = test system: Campylobacter jejuni NCTC 11168; assay: Biofilm formation on plastic coated UV beads (Example 6); conditions: Fe-Tart and Fe-Cit at 50, 100, and 300 μM; FeQ (QPLEX) at 300
# [6] = Score 0: normal, 1: slightly disorder, 2: middle disorder, 3: severe disorder
compound,measurement,setting,value
O=S(=O)([O-])[O-].[Fe+2] [Fe (II)sulfate],ADFI 1-21 d of rearing,[1],804 ± 38 g
same,ADFI 1-56 d of rearing,[1],1.49 ± 0.02 kg
same,ADFI 22-56 d of rearing,[1],1.90 ± 0.02 kg
same,ADG 1-21 d of rearing,[1],268 ± 30^a g
same,ADG 1-56 d of rearing,[1],723 ± 36^a g
same,ADG 22-56 d of rearing,[1],792 ± 48^a g
same,FCR 1-21 d of rearing,[1],1.339 ± 0.142^a feed:gain
same,FCR 1-56 d of rearing,[1],2.065 ± 0.100^a feed:gain
same,FCR 22-56 d of rearing,[1],2.408 ± 0.148^a feed:gain
same,Mean BW at d 56 of rearing,[1],91.9 ± 2.0^a kg
same,Mean daily body temperature score 1-56 d of rearing,[2]; [6],0.09 ± 0.11^a
same,Mean daily coughing score 1-56 d of rearing,[2]; [6],0.51 ± 0.13
same,Mean daily ear score 1-56 d of rearing,[2]; [6],0.04 ± 0.07
same,Mean daily eye score 1-56 d of rearing,[2]; [6],0.04 ± 0.07
same,Mean daily faecal score 1-56 d of rearing,[2]; [6],0.68 ± 0.14
same,Mean daily nasal discharge score 1-56 d of rearing,[2]; [6],0.44 ± 0.12
same,"% excluded, 1-56 d of rearing","[2]; bovine, in vivo",0%
same,"No calves excluded, 1-56 d of rearing","[2]; bovine, in vivo",1
same,"No calves treated with antibiotics, 1-56 d of rearing",[2]; of 40 calves per treatment,3
"NCC(=O)[O-].NCC(=O)[O-].NCC(=O)[O-].[Fe+3] [Fe-Gly, Ferric glycinate]",biofilm formation (coverage rate on glass slide),"[3]; 300 μM, 72 hours",able to inhibit biofilm formation
same,biofilm formation (coverage rate on glass slide),"[3]; 100 and 300 μM, 72 hours",inhibits the formation of biofilm
"CC(O)C(=O)O.CC(O)C(=O)O.CC(O)C(=O)O.[Fe] (centres unmarked) [Fe-Lac, ferric lactate]","Faecal lactobacilli counts, day 0 post weaning",lactobacilli,8.68 10log cfu/g
same,"Faecal lactobacilli counts, day 4 post weaning",lactobacilli,8.76 10log cfu/g
same,"Faecal lactobacilli counts, day 7 post weaning",lactobacilli,8.97 10log cfu/g
same,"Faecal lactobacilli counts, day 14 post weaning",lactobacilli,8.77 10log cfu/g
same,"Lactobacilli to E. coli ratio (L:C), day 0 post weaning",lactobacilli,1.03
same,"Lactobacilli to E. coli ratio (L:C), day 4 post weaning",lactobacilli,1.08
same,"Lactobacilli to E. coli ratio (L:C), day 7 post weaning",lactobacilli,1.33
same,"Lactobacilli to E. coli ratio (L:C), day 14 post weaning",lactobacilli,1.45
same,"levels of Campylobacter in caeca at day 35, comparison between treatments (FIG. 11)",Campylobacter jejuni,lowest levels
same,levels of Campylobacter in caeca at day 35 compared with positive control (FIG. 11),Campylobacter jejuni; oral challenge at day 14,lower levels of Campylobacter in their caeca
same,"biofilm formation (coverage rate on glass slide), dispersion effect (FIG. 5B)","[3]; 10, 50, and 100 μM",inhibits the formation of biofilm
same,"biofilm formation (coverage rate on glass slide), titration effect (FIG. 5A)","[3]; 50, 100, and 300 μM, 72 hours",inhibits the formation of biofilm
same,"Averaged body weight gain, days 0 to 4 post weaning",[4],153 g/day/pig
same,"Averaged body weight gain, days 0 to 7 post weaning",[4],172 g/day/pig
same,"Averaged body weight gain, days 0 to 14 post weaning",[4],380 g/day/pig
same,"Averaged body weight gain, days 4 to 7 post weaning",[4],197 g/day/pig
same,"Averaged body weight gain, days 7 to 14 post weaning",[4],587 g/day/pig
same,"Averaged daily feed intake, days 0 to 4 post weaning",[4],154 g/day/pig
same,"Averaged daily feed intake, days 0 to 7 post weaning",[4],223 g/day/pig
same,"Averaged daily feed intake, days 0 to 14 post weaning",[4],378 g/day/pig
same,"Averaged daily feed intake, days 4 to 7 post weaning",[4],315 g/day/pig
same,"Averaged daily feed intake, days 7 to 14 post weaning",[4],532 g/day/pig
same,"Body weights, day 0 post weaning",[4],9.74 kg/pig
same,"Body weights, day 4 post weaning",[4],10.35 kg/pig
same,"Body weights, day 7 post weaning",[4],10.94 kg/pig
same,"Body weights, day 14 post weaning",[4],15.05 kg/pig
same,"Feed conversion ratio, days 0 to 4 post weaning",[4],0.54 g/g
same,"Feed conversion ratio, days 0 to 7 post weaning",[4],2.67 g/g
same,"Feed conversion ratio, days 0 to 14 post weaning",[4],1.00 g/g
same,"Feed conversion ratio, days 7 to 14 post weaning",[4],0.91 g/g
same,"Faecal E. coli counts, day 0 post weaning",E. coli,8.40 10log cfu/g
same,"Faecal E. coli counts, day 4 post weaning",E. coli,7.80 10log cfu/g
same,"Faecal E. coli counts, day 7 post weaning",E. coli,6.37 10log cfu/g
same,"Faecal E. coli counts, day 14 post weaning",E. coli,5.98 10log cfu/g
"O=C([O-])C(O)C(O)C(=O)[O-].O=C([O-])C(O)C(O)C(=O)[O-].O=C([O-])C(O)C(O)C(=O)[O-].[Fe+3].[Fe+3] (centres unmarked) [Fe-Tart, ferric tartrate]","Faecal lactobacilli counts, day 0 post weaning",lactobacilli,8.84 10log cfu/g
same,"Faecal lactobacilli counts, day 4 post weaning",lactobacilli,8.94 10log cfu/g
same,"Faecal lactobacilli counts, day 7 post weaning",lactobacilli,9.48 10log cfu/g
same,"Faecal lactobacilli counts, day 14 post weaning",lactobacilli,8.79 10log cfu/g
same,biofilm formation (coverage rate on glass slide),"[3]; 100 and 300 μM, 72 hours",inhibits the formation of biofilm
same,C. jejuni biofilm formation on plastic coated UV beads (FIG. 9),[5],inhibited C. jejuni biofilm formation
same,"Faecal E. coli counts, day 0 post weaning",E. coli,8.67 10log cfu/g
same,"Faecal E. coli counts, day 4 post weaning",E. coli,6.42 10log cfu/g
same,"Faecal E. coli counts, day 7 post weaning",E. coli,6.51 10log cfu/g
same,"Faecal E. coli counts, day 14 post weaning",E. coli,6.43 10log cfu/g
